Assay results as given in article PMC12609579, “Acute Myeloid Leukemia: A Key Role of DGKα and DGKζ in Cell Viability” (Cells, 2025).

Legend:
[1] = test system: HEL cells; design: method as in PMID 37509516; conditions: cited from earlier work; for IC50: 24 h, read-out: IC50 (cytotoxicity)
[2] = test system: HL-60 cells; design: method as in PMID 37509516; conditions: cited from earlier work; for effect on viability: HL-60; for IC50: HL-60, 24 h, read-out: IC50 (cytotoxicity)
[3] = test system: AML cell lines (HL-60, HEL, THP-1, K562); experiment: alamarBlue cell viability assay, AML cell line panel (serotonin receptor inhibitors); assay type: cell-based, human; conditions: 24 h; for effects on AML cell viability: increasing concentrations
Description: The alamarBlue assay was performed to assess cell viability in presence of chemical inhibitors. A total of 50,000 cells per well were seeded in a 96-wells plate in a volume of 100 μL of complete medium together with 10 μL of 10× concentrated inhibitor solution and then incubated for either 24 or 72 h. Each experimental condition was performed in technical quadruplicates, using cells treated with equal amounts of DMSO vehicle as control and medium alone as background. After incubation, alamarBlue was added to each well at a final concentration of 0.15 mg/mL. The fluorescence of the samples was measured 24 h later using a Spark 10 M Multimode Plate Reader (Tecan, Switzerland) with excitation and emission wavelengths of 535 nm and 590 nm, respectively. For dose–response curve fitting, fluorescence values were normalized according to the following formula:Viability (%) = [(sample mean fluorescence)/(DMSO control mean fluorescence)] ∗ 100 […]
Supplementary figure S3: Effects of serotonin receptor inhibitors on AML cell lines viability.
AML cells were treated with increasing concentration of the indicated inhibitor for 24 hours followed by alamarBlue viability assay for additional 24 hours. Experiments were run in quadruplicates. Data are the mean ± SEM of 4 or more experiments interpolated as [inhibitor] vs. % viability. […]

[4] = biological target: serotonin 5-HT2A receptor; conditions: cited from earlier work

SMILES: Cc1ccc2c(C(=O)CN3CCN(C(=O)c4ccco4)CC3)c(C)[nH]c2c1 [AMB639752]
- effect on viability [1]: did not significantly affect viability
- effect on viability [2]: did not significantly affect viability

SMILES: O=C1/C(=C/C=C/c2ccco2)SC(=S)N1NS(=O)(=O)c1ccccc1 [CU-3]
- effect on viability [1]: did not significantly affect viability
- effect on viability [2]: did not significantly affect viability

SMILES: Cc1nc2sccn2c(=O)c1CCN1CCC(=C(c2ccccc2)c2ccc(F)cc2)CC1 [R59022]
- IC50 [1]: 49 µM
- IC50 [2]: 32 µM

SMILES: O=c1c2ccccc2[nH]c(=S)n1CCN1CCC(=C(c2ccc(F)cc2)c2ccc(F)cc2)CC1 [R59949]
- IC50 [1]: 80 µM
- IC50 [2]: 72 µM

SMILES: O=C(c1ccc(F)cc1)C1CCN(CCn2c(=S)[nH]c3ccccc3c2=O)CC1 [altanserin]
- effects on AML cell viability [3]: negligible effects
- Ki [4]: 0.00013 µM

SMILES: CCN(CC)CCNC(=O)c1cc(Cl)c(N)cc1OC [metoclopramide]
- highest reduction in viability ([3]; 100 μM): 11%
- effects on AML cell viability [3]: negligible effects

SMILES: Cc1nc2n(c(=O)c1CCN1CCC(c3noc4cc(F)ccc34)CC1)CCCC2 [risperidone]
- effects on AML cell viability [3]: negligible effects
